Among the data in paper PMC12652730, “The Chemoreceptive Molecular Mechanism Underlying CSP-Mediated Recognition of Seed Elaiosome from Stemona tuberosa by Hornets” (Genes, 2025) are Ki, Raw fluorescence intensity and IC50 values, retold here.

Each structure is given as a SMILES string. Where two headings read alike, the source gives them in different places. A value given as a limit tells only on which side of the number the result lay.

The target of one assay is CsasCSP16. Details: method as in PMID 34082360. The conditions noted are these: CsasCSP16 from Carposina sasakii ref 42; cited from earlier work.
A further assay has as its target VvelCSP1 (Vespa velutina auraria, UniProt A0A384ZVP9). In words: Fluorescence competitive binding assay (1-NPN probe) with VvelCSP1. As for the experimental part:
(§1) Fluorescence competitive binding assays were employed to characterize the interactions between VvelCSPs and 13 volatiles shared between the elaiosomes of S. tuberosa and the cuticular hydrocarbons of honeybees. These tests were performed in 1 cm path length quartz cuvettes with an excitation wavelength of 337 nm and emission wavelength scanning from 400–450 nm. The volatiles and the fluorescent probe 1-NPN (1-N-phenylnaphthylamine), listed in Supplementary Table S2, were dissolved in methanol to prepare 100 mM stock solutions, which were then diluted to 1 mM working solutions [25]. To remove any potential endogenous ligands, the purified proteins were delipidated by three washes with an equal volume of dichloromethane (1:1 v/v). Each wash involved a 10-min incubation, and the process was followed by evaporation of the residual solvent under a gentle stream of nitrogen. Purified CSPs were resuspended in 20 mM Tris-HCl buffer (pH 7.5) to a final concentration of 2 μM. Binding parameters for CSP-NPN were determined by titration: 2 mL of CSP solution (2 μM) was titrated with 1-NPN (final concentrations: 2−24 μM). Maximum fluorescence intensity was recorded, and the dissociation constant was calculated. […] After incubation in the dark for 2 min, fluorescence quenching was measured. Half-maximal inhibitory concentration (IC50) values for volatiles were calculated from the competition curves, and their binding constants (Ki) were subsequently derived. The presented data, including IC50 and Ki values, originate from a single experiment under uniform conditions to ensure comparability (Supplementary Table S3).

The target of another assay is VvelCSP4. In words: Fluorescence competitive binding assay (1-NPN probe) with VvelCSP4. Also on record: species or system Vespa velutina auraria. The method, then:
as §1

[1] abbreviates: VvelCSP4 2 μM, 1-NPN 1 μM, Tris-HCl pH 7.5, single experiment, read-out: IC50 (ligand concentration displacing 50% of the fluorescence intensity of the CSPs/NPN complex).
Setting [2] is: VvelCSP4, derived from IC50, read-out: Ki (dissociation constant).

VvelCSP1, sequence (A0A384ZVP9 entry or part of it): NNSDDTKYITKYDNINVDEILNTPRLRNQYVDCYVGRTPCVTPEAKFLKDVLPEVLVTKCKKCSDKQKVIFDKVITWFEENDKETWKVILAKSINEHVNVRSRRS

As to `CCCCCCCCCCCCCCC` [pentadecane], the Ki at CsasCSP16 was 3.5 µM.
As to `CCCCCCCC/C=C\CCCCCCCCCCCCC` [Z-9-Tricosene], the Raw fluorescence intensity is 214.80 at VvelCSP1 (VvelCSP1, chemical 0.5 μM); 200.54 on VvelCSP1 (VvelCSP1, chemical 1 μM); 176.56 at VvelCSP1 (VvelCSP1, chemical 2 μM); 164.98 at VvelCSP1 (VvelCSP1, chemical 4 μM); 151.46 at VvelCSP1 (VvelCSP1, chemical 6 μM); 137.73 on VvelCSP1 (VvelCSP1, chemical 8 μM). Further, the Raw fluorescence intensity is on record as 126.20 on VvelCSP1 (VvelCSP1, chemical 12 μM); 120.19 at VvelCSP1 (VvelCSP1, chemical 16 μM); 182.16 in the assay with VvelCSP4 (VvelCSP4, chemical 0.5 μM); 152.13 in the assay on VvelCSP4 (VvelCSP4, chemical 1 μM); 132.92 in the assay on VvelCSP4 (VvelCSP4, chemical 2 μM); 109.71 in the assay on VvelCSP4 (VvelCSP4, chemical 4 μM). The Raw fluorescence intensity in the assay with VvelCSP4 (VvelCSP4, chemical 6 μM) was determined as 96.72; in the assay on VvelCSP4 (VvelCSP4, chemical 8 μM), 89.44; in the assay with VvelCSP4 (VvelCSP4, chemical 12 μM), 84.83; in the assay with VvelCSP4 (VvelCSP4, chemical 16 μM) it was 83.78. Further, at VvelCSP4 (setting [1]), the IC50 came to 3.97 µM. The inhibition constant (Ki) at VvelCSP4 (setting [2]) was 2.97 µM.
Consider `CCCCCCCCCCCCCCCCCCCCCCCCCCCCC` [Nonacosane], for which the Raw fluorescence intensity at VvelCSP1 (VvelCSP1, chemical 0.5 μM) is listed as 215.85; on VvelCSP1 (VvelCSP1, chemical 1 μM), 197.03; on VvelCSP1 (VvelCSP1, chemical 2 μM), 181.17; at VvelCSP1 (VvelCSP1, chemical 4 μM), 168.33; at VvelCSP1 (VvelCSP1, chemical 6 μM), 152.52; on VvelCSP1 (VvelCSP1, chemical 8 μM), 138.03. The Raw fluorescence intensity is reported as 127.11 on VvelCSP1 (VvelCSP1, chemical 12 μM); 120.08 at VvelCSP1 (VvelCSP1, chemical 16 μM); 212.97 in the assay on VvelCSP4 (VvelCSP4, chemical 0.5 μM); 196.97 with VvelCSP4 (VvelCSP4, chemical 1 μM); 179.08 in the assay with VvelCSP4 (VvelCSP4, chemical 2 μM); 164.16 in the assay on VvelCSP4 (VvelCSP4, chemical 4 μM). The Raw fluorescence intensity is 151.46 in the assay on VvelCSP4 (VvelCSP4, chemical 6 μM); 136.04 with VvelCSP4 (VvelCSP4, chemical 8 μM); 129.53 in the assay with VvelCSP4 (VvelCSP4, chemical 12 μM); 125.16 in the assay on VvelCSP4 (VvelCSP4, chemical 16 μM). Moreover, on VvelCSP4 (setting [1]), the IC50 came out at 20.4 µM. Also, the Ki at VvelCSP4 (setting [2]) is 15.1 µM.
As to `CCCCCCCCCCCCCCCCCCCCCCCCCC` [Hexacosane], the Raw fluorescence intensity at VvelCSP1 (VvelCSP1, chemical 0.5 μM) was 189.29; on VvelCSP1 (VvelCSP1, chemical 1 μM) it was 171.76; on VvelCSP1 (VvelCSP1, chemical 2 μM) it was 135.79; at VvelCSP1 (VvelCSP1, chemical 4 μM), 114.55; on VvelCSP1 (VvelCSP1, chemical 6 μM), 103.35; at VvelCSP1 (VvelCSP1, chemical 8 μM), 99.94. The Raw fluorescence intensity worked out at 93.92 at VvelCSP1 (VvelCSP1, chemical 12 μM); 89.96 at VvelCSP1 (VvelCSP1, chemical 16 μM); 213.35 in the assay on VvelCSP4 (VvelCSP4, chemical 0.5 μM); 194.71 with VvelCSP4 (VvelCSP4, chemical 1 μM); 177.42 with VvelCSP4 (VvelCSP4, chemical 2 μM); 169.19 with VvelCSP4 (VvelCSP4, chemical 4 μM). Besides, the Raw fluorescence intensity worked out at 147.61 in the assay on VvelCSP4 (VvelCSP4, chemical 6 μM); 141.30 in the assay with VvelCSP4 (VvelCSP4, chemical 8 μM); 136.25 with VvelCSP4 (VvelCSP4, chemical 12 μM); 133.13 in the assay on VvelCSP4 (VvelCSP4, chemical 16 μM). The IC50 on VvelCSP4 (VvelCSP4, read-out: IC50 (μM), no binding symbol) is above 24 µM. Moreover, at VvelCSP4 (VvelCSP4, read-out: Ki (μM), no binding symbol), the Ki was above 18 µM.
Consider `CCCCCCCCCCCCCCCCCCCCCC` [Docosane], for which the Raw fluorescence intensity on VvelCSP1 (VvelCSP1, chemical 0.5 μM) was 246.77; at VvelCSP1 (VvelCSP1, chemical 1 μM) it was 231.89; on VvelCSP1 (VvelCSP1, chemical 2 μM), 197.76; at VvelCSP1 (VvelCSP1, chemical 4 μM), 171.56; on VvelCSP1 (VvelCSP1, chemical 6 μM) it was 161.14; at VvelCSP1 (VvelCSP1, chemical 8 μM) it was 158.53. In addition, the Raw fluorescence intensity on VvelCSP1 (VvelCSP1, chemical 12 μM) was found to be 154.82; at VvelCSP1 (VvelCSP1, chemical 16 μM), 153.17; in the assay on VvelCSP4 (VvelCSP4, chemical 0.5 μM) it was 205.93; in the assay on VvelCSP4 (VvelCSP4, chemical 1 μM), 179.89; with VvelCSP4 (VvelCSP4, chemical 2 μM), 159.86; with VvelCSP4 (VvelCSP4, chemical 4 μM), 127.80. Moreover, the Raw fluorescence intensity in the assay on VvelCSP4 (VvelCSP4, chemical 6 μM) is recorded as 108.85; in the assay with VvelCSP4 (VvelCSP4, chemical 8 μM), 102.51; in the assay on VvelCSP4 (VvelCSP4, chemical 12 μM), 95.75; in the assay on VvelCSP4 (VvelCSP4, chemical 16 μM), 91.32. Besides, on VvelCSP4 (setting [1]), the IC50 came out at 3.68 µM. The Ki on VvelCSP4 (setting [2]) is 2.73 µM.
Take `CCCCCCCCCCCCCCCCCCCCC` [Heneicosane]: the Raw fluorescence intensity was 190.87 at VvelCSP1 (VvelCSP1, chemical 0.5 μM); 168.28 on VvelCSP1 (VvelCSP1, chemical 1 μM); 152.31 at VvelCSP1 (VvelCSP1, chemical 2 μM); 138.38 on VvelCSP1 (VvelCSP1, chemical 4 μM); 134.83 at VvelCSP1 (VvelCSP1, chemical 6 μM); 130.66 at VvelCSP1 (VvelCSP1, chemical 8 μM). Besides, the Raw fluorescence intensity is recorded as 127.58 at VvelCSP1 (VvelCSP1, chemical 12 μM); 125.86 at VvelCSP1 (VvelCSP1, chemical 16 μM); 252.45 in the assay on VvelCSP4 (VvelCSP4, chemical 0.5 μM); 226.44 with VvelCSP4 (VvelCSP4, chemical 1 μM); 209.89 in the assay with VvelCSP4 (VvelCSP4, chemical 2 μM); 178.34 in the assay on VvelCSP4 (VvelCSP4, chemical 4 μM). The Raw fluorescence intensity is recorded as 161.57 with VvelCSP4 (VvelCSP4, chemical 6 μM); 149.85 with VvelCSP4 (VvelCSP4, chemical 8 μM); 143.60 with VvelCSP4 (VvelCSP4, chemical 12 μM); 140.19 in the assay on VvelCSP4 (VvelCSP4, chemical 16 μM). In addition, the IC50 at VvelCSP4 (setting [1]) worked out at 19.8 µM. Further, the Ki on VvelCSP4 (setting [2]) was determined as 14.7 µM.
With `CCCCCCCCCCCCCCCCCCCCCCCCC` [Pentacosane], the Raw fluorescence intensity was determined as 242.52 at VvelCSP1 (VvelCSP1, chemical 0.5 μM); 219.99 on VvelCSP1 (VvelCSP1, chemical 1 μM); 165.83 at VvelCSP1 (VvelCSP1, chemical 2 μM); 143.30 at VvelCSP1 (VvelCSP1, chemical 4 μM); 135.17 at VvelCSP1 (VvelCSP1, chemical 6 μM); 129.88 on VvelCSP1 (VvelCSP1, chemical 8 μM). The Raw fluorescence intensity worked out at 124.70 on VvelCSP1 (VvelCSP1, chemical 12 μM); 122.60 on VvelCSP1 (VvelCSP1, chemical 16 μM); 211.45 in the assay on VvelCSP4 (VvelCSP4, chemical 0.5 μM); 182.28 in the assay on VvelCSP4 (VvelCSP4, chemical 1 μM); 160.44 in the assay on VvelCSP4 (VvelCSP4, chemical 2 μM); 139.39 in the assay on VvelCSP4 (VvelCSP4, chemical 4 μM). The Raw fluorescence intensity was 119.91 with VvelCSP4 (VvelCSP4, chemical 6 μM); 111.74 with VvelCSP4 (VvelCSP4, chemical 8 μM); 105.45 in the assay on VvelCSP4 (VvelCSP4, chemical 12 μM); 103.82 in the assay with VvelCSP4 (VvelCSP4, chemical 16 μM). In addition, the IC50 on VvelCSP4 (setting [1]) was determined as 4.65 µM. In addition, the Ki on VvelCSP4 (setting [2]) amounted to 3.49 µM.
